Earlier results in US9044531B2, “Vascular closure device” (Cordis Corporation, priority 2007, dated 2015).

System: S. aureus
Conditions: measured in a suitable growth medium; Bhargava et al., American Journal of Infection Control, June 1996

Oc1cc(Cl)ccc1Oc1ccc(Cl)cc1Cl [2,4,4′-trichloro-2′-hydroxydiphenyl ether]
minimum inhibitory concentration (MIC) against S. aureus: 0.01 ppm
